Experimental data taken from EP0168309A1, “Isoxazoloquinolinone derivatives, process and intermediates for their preparation, use as medicaments and compositions containing them” (ROUSSEL-UCLAF, priority 1984, dated 1986).

Legend:
[1] = target: récepteurs des benzodiazépines; experiment: Affinity for benzodiazepine receptors (3H diazepam binding, rat cortex membranes); parameters: species or system rats; conditions: concentration inhibiting 50 % of specific binding of 3H diazepam (10^-9M), 30 minutes at 0°C, read-out: C. I. 50 (the source's name)
Procedure: La technique est inspirée de celle de Möhler et Okada : Science, Vol 198 p.849-851 (1977).
On homogénéise au vingtième (poids/volume) dans le sucrose 0,32 M, les cortex prélevés sur des cerveaux de rats mâles pesant 150 g en moyenne. Après centrifugation de l'homogénat à 1000 g pendant 10 minutes à 0°C, le surnageant est centrifugé à 30 000 g pendant 20 minutes à 4°C. Le culot est mis en suspension dans 20 volumes de tampon Tris HCl 50mM pH 7,4 et centrigué à 30 000 g pendant 20 minutes à 4°C. Le nouveau culot obtenu est mis en suspension dans 50 ml de tampon Krebs Tris HCl pH 7,4.
On fait ensuite incuber pendant 30 minutes à 0°C, 2 ml de suspension en présence de 3H diazepam à la concentration 10^-9M : • i) seule, • ii) avec des concentrations croissantes du produit à tester ou, • iii) pour déterminer la fixation non spécifique, avec du diazepam non radioactif à la concentration 10^-6M.
Les suspensions incubées sont filtrées sur Whatman GF/C et les filtres sont lavés par deux fois 5 ml de tampon Krebs Tris HCl pH 7,4 à 0°C.
La radioactivité des filtres est mesurées par scintillation liquide.
L'activité du produit est exprimée en C. I. 50 : concentration inhibant 50 % de la liaison spécifique de ^3H diazepam.

souris = experiment: Acute toxicity, oral administration in mice (DL0); format: in vivo; conditions: maximal dose causing no mortality in 8 days, mouse
Description: On a évalué les doses létales DLO des différents composés testés après administration par voie orale chez la souris.
On appelle DLO la dose maximale ne provoquant aucune mortalité en 8 jours.

[2] = test system: taux sérique de corticostérone; experiment: Action on serum corticosterone level after noise stress; format: in vivo; conditions: Rattus norvegicus; dose reducing by 50% the increase of serum corticosterone; oral route, 1 hour before stress; rats; read-out: DE50 (the source's name)
Description: Des lots de 5 rats sont constitués la veille de l'essai et placés dans un pièce au calme. Les composés sont administrés par voie orale le lendemain entre 8 et 9 heures du matin. Une heure après, le stress est appliqué : il consiste à changer les animaux de cage, à les placer dans une pièce où un poste de radio fonctionne bruyamment (90 décibels), puis 1/2 heure plus tard, à leur faire une piqûre intrapéritonéale sans injection. Dix minutes après celle-ci, les rats sont anesthésiés a l'halothane et des échantillons de sang sont prélevés par décapitation. Les taux de corticostérone sérique sont alors déterminés.
Les résultats sont exprimés en DE50, c'est-à-dire en dose de composé testé qui réduit de 50% l'augmentation du taux de corticostérone sérique chez les animaux traités par rapport aux animaux témoins.

Compound	IC50 [1] [nM]	DL0 (souris) [mg/kg]	ED50 [2] [mg/kg]
O=c1c2cnc3ccccc3c2on1-c1ccccc1 [Exemple 1, 2-phényl isoxazolo (4,5-c) quinoléin-3 (2H) one]	120	≥ 400	–
O=c1c2cnc3ccc(F)cc3c2on1-c1ccccc1 [Exemple 2, 8-fluoro 2-phénylisoxazolo (4,5-c) quinoléin-3-(2H)-one]	400	≥ 400	< 50
COc1ccc2c(c1)ncc1c(=O)n(-c3ccccc3)oc12 [Exemple 3, 7-méthoxy 2-phénylisoxazolo (4,5-c) quinoléin-3-(2H)-one]	–	≥ 200	–
COc1ccc2ncc3c(=O)n(-c4ccccc4)oc3c2c1 [Exemple 4, 8-méthoxy 2-phényl isoxazolo (4,5-c) quinoléin-3-(2H)-one]	2460	200	< 100
O=c1c2cnc3ccc(C(F)(F)F)cc3c2on1-c1ccccc1 [Exemple 5, 8-trifluorométhyl 2-phényl isoxazolo (4,5-c) quinoléin-3-(2H)-one]	–	≥ 200	–
O=c1c2cnc3ccc(Cl)cc3c2on1-c1ccccc1 [Exemple 7, 8-chloro 2-phényl isoxazolo (4,5-c) quinoléin-3-(2H)-one]	–	≥ 100	–
